Data: PubChem BioAssay (NCI)
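Protocol summary: plate cells (96-well), add compound at 5 concentrations, incubate 48 h, interpolate endpoints linearly. Definition used: TGI = concentration required for complete inhibition of growth.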

Experiments:
Experiment in all cases: NCI anticancer screen, dose series, 48 h
786-0 renal = test system: 786-0 renal
A498 renal = test system: A498 renal
A549 NSCLC = test system: A549 NSCLC
ACHN renal = test system: ACHN renal
BT-549 breast = test system: BT-549 breast
CCRF-CEM leukemia = test system: CCRF-CEM leukemia
COLO 205 colon = test system: COLO 205 colon
DU-145 prostate = test system: DU-145 prostate
EKVX NSCLC = test system: EKVX NSCLC
HCC-2998 colon = test system: HCC-2998 colon
HCT-116 colon = test system: HCT-116 colon
HCT-15 colon = test system: HCT-15 colon
HL-60(TB) leukemia = test system: HL-60(TB) leukemia
HOP-62 NSCLC = test system: HOP-62 NSCLC
HOP-92 NSCLC = test system: HOP-92 NSCLC
HS 578T breast = test system: HS 578T breast
HT29 colon = test system: HT29 colon
IGROV1 ovarian = test system: IGROV1 ovarian
K-562 leukemia = test system: K-562 leukemia
KM12 colon = test system: KM12 colon
M14 melanoma = test system: M14 melanoma
MALME-3M melanoma = test system: MALME-3M melanoma
MDA-MB-231 breast = test system: MDA-MB-231 breast
MDA-MB-435 = test system: MDA-MB-435
MDA-N = test system: MDA-N
MOLT-4 leukemia = test system: MOLT-4 leukemia
NCI-H226 lung = test system: NCI-H226 lung
NCI-H23 lung = test system: NCI-H23 lung
NCI-H460 lung = test system: NCI-H460 lung
NCI-H522 lung = test system: NCI-H522 lung
NCI/ADR-RES ovarian = test system: NCI/ADR-RES ovarian
OVCAR-3 ovarian = test system: OVCAR-3 ovarian
OVCAR-4 ovarian = test system: OVCAR-4 ovarian
OVCAR-5 ovarian = test system: OVCAR-5 ovarian
OVCAR-8 ovarian = test system: OVCAR-8 ovarian
PC-3 prostate = test system: PC-3 prostate
RPMI-8226 leukemia = test system: RPMI-8226 leukemia
RXF 393 renal = test system: RXF 393 renal
SF-268 CNS = test system: SF-268 CNS
SF-295 CNS = test system: SF-295 CNS
SF-539 CNS = test system: SF-539 CNS
SK-MEL-2 melanoma = test system: SK-MEL-2 melanoma
SK-MEL-28 melanoma = test system: SK-MEL-28 melanoma
SK-MEL-5 melanoma = test system: SK-MEL-5 melanoma
SK-OV-3 ovarian = test system: SK-OV-3 ovarian
SN12C renal = test system: SN12C renal
SNB-19 CNS = test system: SNB-19 CNS
SNB-75 CNS = test system: SNB-75 CNS
SW-620 colon = test system: SW-620 colon
T-47D breast = test system: T-47D breast
TK-10 renal = test system: TK-10 renal
U251 CNS = test system: U251 CNS
UACC-257 melanoma = test system: UACC-257 melanoma
UACC-62 melanoma = test system: UACC-62 melanoma
UO-31 renal = test system: UO-31 renal
CAKI-1 renal = test system: CAKI-1 renal
DLD-1 colon = test system: DLD-1 colon
DMS 114 small cell lung = test system: DMS 114 small cell lung
DMS 273 small cell lung = test system: DMS 273 small cell lung
HOP-18 NSCLC = test system: HOP-18 NSCLC
KM20L2 colon = test system: KM20L2 colon
LOX IMVI melanoma = test system: LOX IMVI melanoma
LXFL 529 NSCLC = test system: LXFL 529 NSCLC
M19-MEL melanoma = test system: M19-MEL melanoma
MCF7 breast = test system: MCF7 breast
SR leukemia = test system: SR leukemia

CN(C)CCNc1c(O)c2c(c(O)c1Cl)C(=O)C=CC2=O
TGI (786-0 renal): 4.27 µM
TGI (A498 renal): 9.74 µM
TGI (A549 NSCLC): 5.41 µM
TGI (ACHN renal): 9.76 µM
TGI (BT-549 breast): 3.17 µM
TGI (CCRF-CEM leukemia): 4.72 µM
TGI (COLO 205 colon): 3.47 µM
TGI (DU-145 prostate): 3.36 µM
TGI (EKVX NSCLC): 7.69 µM
TGI (HCC-2998 colon): 3.59 µM
TGI (HCT-116 colon): 3.32 µM
TGI (HCT-15 colon): 4.29 µM
TGI (HL-60(TB) leukemia): 4.33 µM
TGI (HOP-62 NSCLC): 3.65 µM
TGI (HOP-92 NSCLC): 4.25 µM
TGI (HS 578T breast): 7.56 µM
TGI (HT29 colon): 3.29 µM
TGI (IGROV1 ovarian): 3 µM
TGI (K-562 leukemia): 6.66 µM
TGI (KM12 colon): 3.39 µM
TGI (M14 melanoma): 3.64 µM
TGI (MALME-3M melanoma): 3.64 µM
TGI (MDA-MB-231 breast): 2.72 µM
TGI (MDA-MB-435): 3.68 µM
TGI (MDA-N): 4.64 µM
TGI (MOLT-4 leukemia): > 100 µM
TGI (NCI-H226 lung): 50.1 µM
TGI (NCI-H23 lung): 4.25 µM
TGI (NCI-H460 lung): 3.63 µM
TGI (NCI-H522 lung): 3.52 µM
TGI (NCI/ADR-RES ovarian): 7.08 µM
TGI (OVCAR-3 ovarian): 3.61 µM
TGI (OVCAR-4 ovarian): 3.29 µM
TGI (OVCAR-5 ovarian): 3.12 µM
TGI (OVCAR-8 ovarian): 3.4 µM
TGI (PC-3 prostate): 17.8 µM
TGI (RPMI-8226 leukemia): 8.14 µM
TGI (RXF 393 renal): 15.4 µM
TGI (SF-268 CNS): 35.2 µM
TGI (SF-295 CNS): 4.05 µM
TGI (SF-539 CNS): 3.28 µM
TGI (SK-MEL-2 melanoma): 3.95 µM
TGI (SK-MEL-28 melanoma): 4.36 µM
TGI (SK-MEL-5 melanoma): 2.88 µM
TGI (SK-OV-3 ovarian): 32.1 µM
TGI (SN12C renal): 3.41 µM
TGI (SNB-19 CNS): 3.76 µM
TGI (SNB-75 CNS): 6.55 µM
TGI (SW-620 colon): 3.91 µM
TGI (T-47D breast): 4.38 µM
TGI (TK-10 renal): 5.68 µM
TGI (U251 CNS): 3.74 µM
TGI (UACC-257 melanoma): 3.09 µM
TGI (UACC-62 melanoma): 3.74 µM
TGI (UO-31 renal): 4.75 µM

O=S1(=O)[C@H](c2ccccc2)c2c(-c3ccccc3)sc(-c3ccccc3)c2[C@@H]1c1ccccc1
TGI (786-0 renal): > 100 µM
TGI (A549 NSCLC): > 100 µM
TGI (ACHN renal): > 100 µM
TGI (CAKI-1 renal): > 100 µM
TGI (CCRF-CEM leukemia): > 100 µM
TGI (COLO 205 colon): > 100 µM
TGI (DLD-1 colon): > 100 µM
TGI (DMS 114 small cell lung): > 100 µM
TGI (DMS 273 small cell lung): > 100 µM
TGI (EKVX NSCLC): > 100 µM
TGI (HCC-2998 colon): > 100 µM
TGI (HCT-15 colon): > 100 µM
TGI (HL-60(TB) leukemia): > 100 µM
TGI (HOP-18 NSCLC): > 100 µM
TGI (HOP-62 NSCLC): > 100 µM
TGI (HOP-92 NSCLC): > 100 µM
TGI (HT29 colon): > 100 µM
TGI (IGROV1 ovarian): > 100 µM
TGI (K-562 leukemia): > 100 µM
TGI (KM12 colon): > 100 µM
TGI (KM20L2 colon): > 100 µM
TGI (LOX IMVI melanoma): > 100 µM
TGI (LXFL 529 NSCLC): > 100 µM
TGI (M14 melanoma): > 100 µM
TGI (M19-MEL melanoma): > 100 µM
TGI (MALME-3M melanoma): > 100 µM
TGI (MOLT-4 leukemia): > 100 µM
TGI (NCI-H23 lung): > 100 µM
TGI (NCI-H460 lung): > 100 µM
TGI (NCI-H522 lung): > 100 µM
TGI (OVCAR-3 ovarian): > 100 µM
TGI (OVCAR-4 ovarian): > 100 µM
TGI (OVCAR-5 ovarian): > 100 µM
TGI (OVCAR-8 ovarian): > 100 µM
TGI (RPMI-8226 leukemia): > 100 µM
TGI (RXF 393 renal): > 100 µM
TGI (SF-268 CNS): > 100 µM
TGI (SF-295 CNS): > 100 µM
TGI (SF-539 CNS): > 100 µM
TGI (SK-MEL-2 melanoma): > 100 µM
TGI (SK-MEL-28 melanoma): > 100 µM
TGI (SK-MEL-5 melanoma): > 100 µM
TGI (SK-OV-3 ovarian): > 100 µM
TGI (SN12C renal): > 100 µM
TGI (SNB-19 CNS): > 100 µM
TGI (SNB-75 CNS): > 100 µM
TGI (SW-620 colon): > 100 µM
TGI (TK-10 renal): > 100 µM
TGI (U251 CNS): > 100 µM
TGI (UACC-257 melanoma): > 100 µM
TGI (UACC-62 melanoma): > 100 µM
TGI (UO-31 renal): > 100 µM

OC(c1ccccc1)c1c(-c2ccccc2)[nH]c(-c2ccccc2)c1C(O)c1ccccc1 (configuration not stated)
TGI (786-0 renal): 16.1 µM
TGI (A498 renal): 8.73 µM
TGI (A549 NSCLC): 18.9 µM
TGI (ACHN renal): 11.9 µM
TGI (CAKI-1 renal): 6.75 µM
TGI (CCRF-CEM leukemia): 6.08 µM
TGI (COLO 205 colon): 3.15 µM
TGI (DU-145 prostate): 20 µM
TGI (EKVX NSCLC): 13.9 µM
TGI (HCC-2998 colon): 22.4 µM
TGI (HCT-116 colon): 8.83 µM
TGI (HCT-15 colon): 40.1 µM
TGI (HL-60(TB) leukemia): 4.24 µM
TGI (HOP-62 NSCLC): 17.5 µM
TGI (HOP-92 NSCLC): 5.46 µM
TGI (HS 578T breast): 18.9 µM
TGI (HT29 colon): 17.5 µM
TGI (IGROV1 ovarian): 12 µM
TGI (K-562 leukemia): 4.64 µM
TGI (KM12 colon): 6.09 µM
TGI (LOX IMVI melanoma): 7.37 µM
TGI (M14 melanoma): 11.8 µM
TGI (MALME-3M melanoma): 7.17 µM
TGI (MCF7 breast): 19.1 µM
TGI (MDA-MB-435): 7.73 µM
TGI (MDA-N): 7.2 µM
TGI (MOLT-4 leukemia): 7 µM
TGI (NCI-H226 lung): 7.32 µM
TGI (NCI-H23 lung): 16.5 µM
TGI (NCI-H460 lung): 14.2 µM
TGI (NCI-H522 lung): 11.5 µM
TGI (NCI/ADR-RES ovarian): 8.02 µM
TGI (OVCAR-3 ovarian): 8.33 µM
TGI (OVCAR-4 ovarian): 4.82 µM
TGI (OVCAR-5 ovarian): 10.8 µM
TGI (PC-3 prostate): 21.1 µM
TGI (RPMI-8226 leukemia): 5.02 µM
TGI (RXF 393 renal): 10.3 µM
TGI (SF-268 CNS): 23 µM
TGI (SF-295 CNS): 38.6 µM
TGI (SF-539 CNS): 6.94 µM
TGI (SK-MEL-2 melanoma): 5.18 µM
TGI (SK-MEL-28 melanoma): 12.1 µM
TGI (SK-MEL-5 melanoma): 5.27 µM
TGI (SK-OV-3 ovarian): 47.2 µM
TGI (SN12C renal): 5.68 µM
TGI (SNB-19 CNS): 23.4 µM
TGI (SR leukemia): 8.25 µM
TGI (SW-620 colon): 29.1 µM
TGI (T-47D breast): 40.4 µM
TGI (TK-10 renal): 18.9 µM
TGI (U251 CNS): 18.5 µM
TGI (UACC-257 melanoma): 8.61 µM
TGI (UACC-62 melanoma): 7.97 µM
TGI (UO-31 renal): 5.78 µM
